In US8814837B2, “Simple device for treating tinea unguium” (priority 2008, dated 2014):
Values joined by “and” are separate entries in the source; they are usually repeats but may differ in a detail not shown here. Identical values can stand only once. Counter-ions that a name gives are not always drawn.

What was measured:
Type in all cases: in vivo
[1] = Terbinafine hydrochloride content in the nail tip after oral administration of a terbinafine hydrochloride tablet
Experimental: As conventionally used as a treatment method for tinea unguium, a terbinafine hydrochloride tablet was orally administered once a day continuously for 4 weeks. A part of the tip of the nail was then cut and measured for the concentration of the terbinafine hydrochloride in the same manner as in Examples 1 to 3.
In Comparative Example 1, the measurement of terbinafine hydrochloride was carried out after administration period of 4 weeks, because the terbinafine hydrochloride was not detected after administration of 2 days.

[2] = Terbinafine hydrochloride content in the nail tip after the dome-shaped applicator was bonded to the nail; details: 0.15 mL of 1% solution, two days; for terbinafine hydrochloride content in the nail: nail tip, individual samples No. 1-6; for concentration at 2 days: nail (tip), topical, 1% solution, average of No. 1-6
Experimental: The dome-shaped applicator of the first type as shown in FIG. 2 (inside volume: 0.15 mL) was used. A commercially available instantaneous adhesive agent (cyanoacrylate-based adhesive) was applied to the flange of the applicator for bonding. The flange was then hermetically bonded to a surface of a nail. Using a syringe (inside volume: 0.5 mL), 0.15 mL of a solution having a terbinafine hydrochloride content of 1% was injected through the feed port. The feed port was then opened so that the inside and outside of the applicator was in fluid communication with each other. Thus, the inside air was released and the inside of the dome-shaped applicator reached ambient pressure (1.0 atm.). The applicator was maintained as such for two days and then removed from the nail. A part of the tip of the nail was cut and measured for the concentration of the terbinafine hydrochloride.
(§1) The dome-shaped applicator of the second type as shown in FIG. 8 (inside volume: 0.15 mL) was used. A commercially available instantaneous adhesive agent (cyanoacrylate-based adhesive) was applied to the flange of the applicator for bonding. The flange was then hermetically bonded to a surface of a nail. Using a syringe (inside volume: 0.5 mL), 0.15 mL of a solution having a terbinafine hydrochloride content of 1% was injected through the thick film portion near the opening of the dome-shaped applicator.
Because the dome-shaped applicator was hermetically bonded to the nail, the thin film portion in the upper part thereof inflated. […] The dome-shaped applicator was maintained in the hermetically bonded state for two days and then removed from the nail. A part of the tip of the nail was cut and measured for the concentration of the terbinafine hydrochloride.
as §1, with “the third” for “the second”, “FIG. 15” for “FIG. 8”, “0.15 ml.)” for “0.15 mL)”, “applicator. Because the dome-shaped applicator was hermetically bonded to the nail, the thin film portion in the upper part thereof was inverted and protruded as shown in FIG. 15(B).” for “applicator.”
The dome-shaped applicator was maintained in the hermetically bonded state for two days and then removed from the nail. A part of the tip of the nail was cut and measured for the concentration of the terbinafine hydrochloride.

[3] = Terbinafine hydrochloride content in the nail after applying a 1% external medicine to the nail surface; details: 1% external medicine applied to nail surface twice a day for 4 weeks
From the text: Incidentally, a 1% terbinafine hydrochloride external medicine was applied to a surface of a nail twice a day continuously for 4 weeks. A part of the tip of the nail was then cut and measured for the concentration of the terbinafine hydrochloride.

concentration at 4 weeks ([1]; human, nail (tip), po, Comparative Example 1: tablet orally once a day for 4 weeks, average of No. 1-6): 380 ng/g
terbinafine hydrochloride detected in the nail ([1]; oral tablet, after administration of 2 days): not detected
concentration at 2 days ([2]; Example 1: first-type applicator, 1.0 atm): 43800 ng/g
concentration at 2 days ([2]; Example 2: second-type applicator, 1.3 atm): 68500 ng/g
concentration at 2 days ([2]; Example 3: third-type applicator, 1.3 atm): 63900 ng/g
penetration of terbinafine hydrochloride into a surface region of the nail [3]: slightly penetrate
SMILES: CN(C/C=C/C#CC(C)(C)C)Cc1cccc2ccccc12 [terbinafine hydrochloride]
terbinafine hydrochloride content in the nail ([1]; Comparative Example 1: tablet orally once a day for 4 weeks, nail tip, individual samples No. 1-6, hydrochloride): 0.24 ng/mg and 0.38 ng/mg and 0.15 ng/mg and 0.28 ng/mg and 0.45 ng/mg and 0.11 ng/mg
terbinafine hydrochloride content in the nail ([2]; Example 1: first-type applicator, ambient pressure (1.0 atm)): 27.0 ng/mg and 40.8 ng/mg and 67.6 ng/mg and 42.9 ng/mg and 52.0 ng/mg and 32.4 ng/mg
terbinafine hydrochloride content in the nail ([2]; Example 2: second-type applicator, inside pressure 1.3 atm): 43.7 ng/mg and 66.1 ng/mg and 88.8 ng/mg and 68.6 ng/mg and 104.9 ng/mg and 38.9 ng/mg
terbinafine hydrochloride content in the nail ([2]; Example 3: third-type applicator, inside pressure 1.3 atm): 41.5 ng/mg and 67.2 ng/mg and 86.3 ng/mg and 70.2 ng/mg and 75.8 ng/mg and 42.3 ng/mg
terbinafine hydrochloride detected in a deep part of the nail [3]: Almost no terbinafine hydrochloride was detected
